From patent publication US4578382A, “4-acylamino-1-azaadamantanes, and compositions for use thereof in medicine” (Etablissements Nativelle S.A., priority 1981, dated 1986)
Read-outs that look alike come from different tables or passages of the source.

Legend:
[1] = tested on: anoxic ventricular fibrillation; test: Lawson test (cardiac antifibrillatory power, chloroform); type: in vivo; details: ip; mouse, intraperitoneal, 10 minutes before chloroform
Protocol: The Lawson test is a test for the study of the cardiac antifibrillatory power of the derivatives. The mice (20 per group) received an intraperitoneal injection of the derivative 10 minutes before being placed in a chloroform-saturated atmosphere. Upon respiratory arrest, the thorax was opened (5 to 10 seconds) and whether or not the heart was in ventricular fibrillation was checked. The efficacy dose 50 (ED 50) of the derivative being studied is the dose which protects half the mice against anoxic ventricular fibrillation.

[2] = tested on: ventricular arrhythmias and death induced by the aconitine; test: Aconitine intoxication test in the anesthetized rat; type: in vivo; details: i.v., vs untreated control
Description: (§1) Narcisse et al, Ann. Pharma. Fr., 37, 325-330 (1979), in the rat by the aconitine intoxication test of S. Witchitz et al, Coeur Med. Int., X(2), 281-286, (1971) and in the dog by the Harris test described in Circulation, 1, 1318, (1950) and by the test with adrenalin after experimental infarct of I. J. Steffe et al, J. Pharmacol. Exp. Ther., 214, 50-57 (1980).
The anesthetized rat was intoxicated with an intravenous perfusion of aconitine while its electrocardiogram (ECG) was permanently recorded. During the perfusion at constant rate, the time necessary for the appearance of ventricular arrhythmias, successive extrasystoles (ESV), then stable ventricular tachycardium (TV) and the time within which the animal died were measured.
The animals were divided into a control group (untreated) and treated groups (different doses). The results are expressed as a percentage of prolonging the time of appearance of the arrhythmias and of death of the treated groups in reaction to the control group.
The results obtained are shown in Table 4 below and express the percentage of prolongation of the time of appearance of ventricular arrhythmias (ventricular extrasystoles and ventricular tachycardiums), and of the death, induced by the aconitine after an intravenous injection (I.V.) of several derivatives of the invention, in relation to a group of untreated control animals.

[3] = Lawson test (cardiac antifibrillatory power, chloroform); details: in vivo, ip; mouse, intraperitoneal; read-out: Maximum Dose Tolerated
[4] = tested on: ventricular arrhythmias; test: Harris test (ventricular arrhythmias after experimental infarct); type: in vivo, dog
Description: as §1
The ligature of the anterior interventricular artery in the anesthetized dog causes the appearance of an experimental infarct of the myocardium followed by considerable ventricular arrhythmias.
The dogs were studied 24 to 48 hours after the intervention. The electrocardiogram (ECG) was then recorded permanently, the conscious dog being at rest in an isolated laboratory. After a period of 3 hours of ECG recording, allowing for the measurement of the cardiac frequency of the dog the frequency of ventricular extrasystoles (ESV)--pre-treatment control period--the derivative to be studied was injected intravenously for 1 minute. Continuous recording of the ECG enabled, in the hours following the injection, measurement of the frequency of the ESV/mn for successive periods from 30 to 60 min. The number of ESV per minute measured for 3 hours during the control period varied from 66 to 172/min with an average of 111/min. […] The length of this antiarrhythmic effect observed varied depending on the derivatives from 1 hour to more than 5 hours. For example, the percentage decrease of the ESV/min in the case of the derivative of Example 11 (cumulative dose 14 mg/kg) was 96% (0 to 1/2 hour), 50% (1/2 to 1 hour) and 68% (1 to 2 hour). The corresponding values for the derivative of Example 4 (3 mg/kg) were 44%, 55% and 45%, respectively.

[5] = tested on: ventricular arrhythmias with adrenalin; test: Test with adrenalin after experimental infarct; type: in vivo, dog
Description: as §1
2 to 5 days after an experimental infarct, the effects of discontinuous injections (in intravenous bolus of […] of basic adrenalin) of adrenalin were observed on the electrocardioagram of the conscious dog.
During a first phase (control) of the experiment, three successive injections of adrenalin were given and, in the 2 minutes following each injection, the frequency of the ventricular extrasystoles was measured. In this manner, by increasing the dose of adrenalin as necessary, it was possible to determine the dose which caused the appearance of ventricular extrasystoles at a higher frequency than or equal to half the total number of ventricular systoles.
After injection of the derivative to be tested, the same dose of adrenalin was reinjected after 5 minutes, then 30 minutes, 60 minutes, 90 minutes, etc., and its effects were compared to those observed during the control period.
The results therein are expressed as a percentage of extrasystoles (on the total number of systoles) measured during the 2 minutes following the injection of adrenalin before and after the administration of the derivative to be tested.

[6] = tested on: anesthetized dog; test: Electrophysiological studies on the anesthetized dog; type: in vivo; details: i.v., 2 evaluations
Protocol: This study was carried out on dogs anesthetized with pentobarbital, with a closed thorax, by means of bipolar catheter-electrodes introduced into the cardiac cavities by transcutaneous venous and arterial means. The surface electrocardiogram (standard derivation D2) is recorded permanently.
By means of a programmable JANSEN (R) stimulator, the following parameters may be measured:
spontaneous cardiac frequency (FC);
sinus recuperation time (SRTc) after auricular stimulation imposed at 160 b/mn for 1 mn;
intracardiac conduction times (auriculohisien at a constant frequency, His-Purkinje, intraventricular);
the effective and functional refractory periods measured at an imposed constant frequency, with the extrastimulus method.
During the electrophysiological study, the derivatives were injected intravenously for 2 minutes for each dose and at 30 minute intervals between each dose. The doses are expressed as a cumulative value and as a base term.
The measurement of the various parameters was carried out before the injection of the first dose (control period) and from 10 to 28 minutes after the injection of each dose of the substance. The results are expressed as a percentage of variation in relation to the control period.

[7] = Acute toxicity in the mouse (LD 50, Litchfield and Wilcoxon); details: in vivo
Protocol: The acute toxicity of the derivatives of the invention were studied by intraperitoneal administration (I.P.) on the mouse (10 animals, 5 males and 5 females per dose) and calculation of the lethal dose 50 (LD 50) in accordance with the method of Litchfield and Wilcoxon (J. Pharmacol. 96, 99-113 (1949)).
In certain cases (derivatives of Examples 4, 6, 9), the LD 50 was also calculated after oral administration (P.O.) of the derivatives.

[8] = tested on: anesthetized dog; test: Hemodynamic (cardiovascular) tolerance in the anesthetized dog; type: in vivo; details: i.v., vs control period
Protocol: The hemodynamic tolerance of the derivatives of the invention was studied on dogs anesthesized with sodium pentobarbital. Endocavitary pressures were measured by means of catheters connected to Statham sensors while external recording of the electrocardiogram (E.C.G.) provided the measurement of cardiac frequency. Cardiac flow was measured by means of an electromagnetic sensor placed on the beginning of the aorta. The total peripheral resistances R were calculated from the value of the average aortic pressure (P) and the cardiac flow (Q) in accordance with the formula R=P/Q.
After measurement of the parameters during a control period, the derivatives were injected intravenously in cumulative doses (30 minute interval between doses). The variations of the parameters in relation to the control period were measured within 20 and 30 minutes after each injection and are expressed as a percentage of variation in relation to the control.
Table 2 summarizes the variations in hemodynamic parameters observed between the first and last injections.

[9] = 14.3 mg/kg, control period 74% of ESV
[10] = ip, intraperitoneal, read-out: LD 50 I.P.
[11] = cumulative doses 0.3 to 10 mg/kg
[12] = 1 mg/kg, control period 48% of ESV

Compound: CC1(NC(=O)CCc2ccccc2)C2CC3CC1CN(C2)C3(C)C (centres unmarked) [Example 4, N-(3-phenylpropionyl)-4-amino-4,8,8-trimethyl-1-azaadamantane]
- ED50 [1]: 72 mg/kg
- Prolongation of time of appearance of ventricular extrasystoles (ESV) ([2]; 5 mg/kg): +37%
- Prolongation of time of appearance of ventricular tachycardium (TV) ([2]; 5 mg/kg): +50%
- Prolongation of time to death ([2]; 5 mg/kg): +25%
- Prolongation of time of appearance of ventricular extrasystoles (ESV) ([2]; 10 mg/kg): +60%
- Prolongation of time of appearance of ventricular tachycardium (TV) ([2]; 10 mg/kg): +86%
- Prolongation of time to death ([2]; 10 mg/kg): +39%
- Prolongation of time of appearance of ventricular extrasystoles (ESV) ([2]; 20 mg/kg): +103%
- Prolongation of time of appearance of ventricular tachycardium (TV) ([2]; 20 mg/kg): +89%
- Prolongation of time to death ([2]; 20 mg/kg): +65%
- MTD [3]: 200 mg/kg
- Percentage decrease of the ESV/min ([4]; 3 mg/kg i.v., 0 to 1/2 hour): 44%
- Percentage decrease of the ESV/min ([4]; 3 mg/kg i.v., 1/2 to 1 hour): 55%
- Percentage decrease of the ESV/min ([4]; 3 mg/kg i.v., 1 to 2 hour): 45%
- ESV Percentage at 5 min [5, 9]: 36%
- ESV Percentage at 30 min [5, 9]: 59%
- ESV Percentage at 60 min [5, 9]: 60%
- F.C. (cardiac frequency), variation ([6]; doses 0.3 to 14.3 mg/kg): 0%
- HV (time of His-Purkinje conduction), variation ([6]; doses 0.3 to 14.3 mg/kg): 0 to +80%
- PREA (effective auricular refractory period), variation ([6]; doses 0.3 to 14.3 mg/kg): +10 to +35%
- PREV (effective ventricular refractory period), variation ([6]; doses 0.3 to 14.3 mg/kg): 0 to +10%
- QRS (time of intraventricular conduction), variation ([6]; doses 0.3 to 14.3 mg/kg): 0 to +15%
- St-H (time of auriculohisien conduction), variation ([6]; doses 0.3 to 14.3 mg/kg): +7 to +10%
- LD50 [7, 10]: 375 mg/kg
- LD50 ([7]; oral, read-out: LD 50 P.O.): 2400 mg/kg
- Cardiac Flow, percentage of variation [8, 11]: -7 to -23%
- Cardiac Frequency, percentage of variation [8, 11]: -7%
- Systolic Arterial Pressure, percentage of variation [8, 11]: -7 to -28%
- Total Peripheral Resistances, percentage of variation [8, 11]: 0 to -13%
- dp/dt/p Left Ventricular, percentage of variation [8, 11]: 0 to -40%

Compound: CC1(NC(=O)Cc2ccccc2)C2CC3CC1CN(C2)C3(C)C (centres unmarked) [Example 9, N-phenylacetyl-4-amino-4,8,8-trimethyl-1-azaadamantane]
- ED50 [1]: 90 mg/kg
- Prolongation of time of appearance of ventricular extrasystoles (ESV) ([2]; 10 mg/kg): +31%
- Prolongation of time of appearance of ventricular tachycardium (TV) ([2]; 10 mg/kg): +79%
- Prolongation of time to death ([2]; 10 mg/kg): +44%
- Prolongation of time of appearance of ventricular extrasystoles (ESV) ([2]; 20 mg/kg): +100%
- Prolongation of time of appearance of ventricular tachycardium (TV) ([2]; 20 mg/kg): +79%
- Prolongation of time to death ([2]; 20 mg/kg): +84%
- Prolongation of time of appearance of ventricular extrasystoles (ESV) ([2]; 40 mg/kg): +171%
- Prolongation of time of appearance of ventricular tachycardium (TV) ([2]; 40 mg/kg): +147%
- Prolongation of time to death ([2]; 40 mg/kg): +88%
- MTD [3]: 200 mg/kg
- ESV Percentage at 5 min [5, 12]: 11%
- ESV Percentage at 30 min [5, 12]: 27%
- ESV Percentage at 60 min [5, 12]: 45%
- F.C. (cardiac frequency), variation ([6]; doses 1 to 19 mg/kg): 0%
- HV (time of His-Purkinje conduction), variation ([6]; doses 1 to 19 mg/kg): +18 to +100%
- PREA (effective auricular refractory period), variation ([6]; doses 1 to 19 mg/kg): +6 to +45%
- PREV (effective ventricular refractory period), variation ([6]; doses 1 to 19 mg/kg): +2 to +15%
- QRS (time of intraventricular conduction), variation ([6]; doses 1 to 19 mg/kg): 0 to +23%
- St-H (time of auriculohisien conduction), variation ([6]; doses 1 to 19 mg/kg): 0 to +30%
- LD50 [7, 10]: 430 mg/kg
- LD50 ([7]; oral, read-out: LD 50 P.O.): 2400 mg/kg
- Cardiac Flow, percentage of variation ([8]; cumulative doses 1 to 10 mg/kg): 0 to -30%
- Cardiac Frequency, percentage of variation ([8]; cumulative doses 1 to 10 mg/kg): 0 to -12%
- Total Peripheral Resistances, percentage of variation ([8]; cumulative doses 1 to 10 mg/kg): -5 to +15%
- dp/dt/p Left Ventricular, percentage of variation ([8]; cumulative doses 1 to 10 mg/kg): 0 to -33%

Compound: CC1(NC(=O)CCCc2ccccc2)C2CC3CC1CN(C2)C3(C)C (centres unmarked) [Example 11, N-(4-phenylbutyryl)-4-amino-4,8,8-trimethyl-1-azaadamantane]
- Percentage decrease of the ESV/min ([4]; cumulative dose 14 mg/kg i.v., 0 to 1/2 hour): 96%
- Percentage decrease of the ESV/min ([4]; cumulative dose 14 mg/kg i.v., 1/2 to 1 hour): 50%
- Percentage decrease of the ESV/min ([4]; cumulative dose 14 mg/kg i.v., 1 to 2 hour): 68%
